Consider 34 compounds from patent publication US12552753B2, “Methods and compositions for targeting Tregs using CCR8 inhibitors” (Nanjing Immunophage Biomedical Co., Ltd., priority 2020, dated 2026).

In this test the target is CCR8 (Homo sapiens, UniProt P51685). As to the kind of experiment: Tango assay (Tango-CCR8-Gal4-CHO-K1 cells, CCL1-stimulated, ONE-Glo luminescence).
Where [1] appears, read: Tango Assay IC50, Inhibition of CCR8 Tango cell in vitro.
[2] abbreviates: read-out: Tango Assay IC50, Inhibition of CCR8 Tango cell in vitro.

One may read the IC50 as the concentration needed to halve the response being measured.

Like-named read-outs stand apart in the source and are kept apart here.

Sequence of CCR8 (P51685 whole entry, the tested form may be a part): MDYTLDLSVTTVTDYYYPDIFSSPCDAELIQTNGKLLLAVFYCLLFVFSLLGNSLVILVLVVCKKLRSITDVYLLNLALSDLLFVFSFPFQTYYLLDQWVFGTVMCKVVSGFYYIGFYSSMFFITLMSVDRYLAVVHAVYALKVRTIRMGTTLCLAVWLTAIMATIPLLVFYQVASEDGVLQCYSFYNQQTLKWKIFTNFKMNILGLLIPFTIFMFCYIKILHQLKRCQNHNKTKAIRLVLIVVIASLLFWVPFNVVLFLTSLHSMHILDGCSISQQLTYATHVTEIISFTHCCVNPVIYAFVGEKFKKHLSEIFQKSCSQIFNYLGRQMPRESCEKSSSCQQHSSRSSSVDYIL

In turn, `CC(=O)N1CCCC(C(C)NS(=O)(=O)c2ccc(NC(=O)c3ccccc3C)c3ccccc23)C1` (single isomer, unassigned) [Compound 18A, N-(4-(N-(1-(1-acetylpiperidin-3-yl)ethyl)sulfamoyl)naph-thalen-1-yl)-2-methylbenzamide] displayed an IC50 under setting [1] of 21 nM. On the same count and under the same terms, the same measure for `CC(=O)N1CCCC(C(C)NS(=O)(=O)c2ccc(NC(=O)c3ccccc3C)c3ccccc23)C1` (single isomer, unassigned) [Compound 18B, N-(4-(N-(1-(1-acetylpiperidin-3-yl)ethyl)sulfamoyl)naph-thalen-1-yl)-2-methylbenzamide]: 100 nM; for `COC(=O)CN1CCCC(C(C)NS(=O)(=O)c2ccc(NC(=O)c3ccccc3C)c3ccccc23)C1` (single isomer, unassigned) [Compound 19A, methyl 2-(3-(1-(4-(2-methylbenzamido)naph-thalene-1-sulfonamido)ethyl)piper-idin-1-yl)acetate]: 2800 nM. The same measure, in the same setting: the same measure for `COC(=O)CN1CCCC(C(C)NS(=O)(=O)c2ccc(NC(=O)c3ccccc3C)c3ccccc23)C1` (single isomer, unassigned) [Compound 19B, methyl 2-(3-(1-(4-(2-methylbenzamido)naph-thalene-1-sulfonamido)ethyl)piper-idin-1-yl)acetate]: over 10000 nM; for `Cc1ccccc1C(=O)Nc1ccc(S(=O)(=O)NC(C)C2CCCCN2C(=O)OC(C)(C)C)c2ccccc12` (single isomer, unassigned) [Compound 67, tert-butyl 2-(1-(4-(2-methylbenzamido)naph-thalene-1-sulfonamido)ethyl)piper-idine-1-carboxylate]: 283 nM. Compound `Cc1ccccc1C(=O)Nc1ccc(S(=O)(=O)NC(C)C2CCCCN2C(=O)OC(C)(C)C)c2ccccc12` (single isomer, unassigned) [Compound 68, tert-butyl 2-(1-(4-(2-methylbenzamido)naph-thalene-1-sulfonamido)ethyl)piper-dine-1-carboxylate] yielded an IC50 under setting [1] of 1760 nM. Still for that read-out and setting: the same measure for `COC(=O)CN1CCCCC1C(C)NS(=O)(=O)c1ccc(NC(=O)c2ccccc2C)c2ccccc12` (single isomer, unassigned) [Compound 70A, methyl 2-(2-(1-(4-(2-methylbenzamido)naph-thalene-1-sulfonamido)ethyl)piper-idin-1-yl)acetate]: 116 nM; for `COC(=O)CN1CCCCC1C(C)NS(=O)(=O)c1ccc(NC(=O)c2ccccc2C)c2ccccc12` (single isomer, unassigned) [Compound 70B, methyl 2-(2-(1-(4-(2-methylbenzamido)naph-thalene-1-sulfonamido)ethyl)piper-idin-1-yl)acetate]: over 10000 nM. Still for that read-out and setting: the same measure for `Cc1ccccc1C(=O)Nc1ccc(S(=O)(=O)NC(C)C2CCCN(C(=O)CNC(=O)OC(C)(C)C)C2)c2ccccc12` (single isomer, unassigned) [Compound 155B, tert-butyl (2-(3-(1-(4-(2-methylbenzamido)naph-thalene-1-sulfonamido)ethyl)piper-idin-1-yl)-2-oxoethyl)carbamate]: over 10000 nM. Compound `Cc1ccccc1C(=O)Nc1ccc(S(=O)(=O)NC(C)C2CCCN(C(=O)CN)C2)c2ccccc12` (single isomer, unassigned) [Compound 156A, N-(4-(N-(1-(1-(2-ammoacetyl)piperidin-3-yl)ethyl)sulfamoyl)naph-thalen-1-yl)-2-methylbenzamide] registered an IC50 under setting [1] of 85 nM. As to `Cc1ccccc1C(=O)Nc1ccc(S(=O)(=O)NC(C)C2CCCN(C(=O)CN)C2)c2ccccc12` (single isomer, unassigned) [Compound 156B, N-(4-(N-(1-(1-(2-aminoacetyl)piperidin-3-yl)ethyl)sulfamoyl)naph-thalen-1-yl)-2-methylbenzamide], the IC50 under setting [1] is over 10000 nM. The same measure, in the same setting: the same measure for `Cc1ccccc1C(=O)Nc1ccc(S(=O)(=O)NC(C)C2CCCN(C(=O)CN)C2)c2ccccc12` (single isomer, unassigned) [Compound 156C, N-(4-(N-(1-(1-(2-aminoacetyl)piperidin-3-yl)ethyl)sulfamoyl)naph-thalen-1-yl)-2-methylbenzamide]: 205 nM; for `Cc1ccccc1C(=O)Nc1ccc(S(=O)(=O)NC(C)C2CCCN(C(=O)CN)C2)c2ccccc12` (single isomer, unassigned) [Compound 156D, N-(4-(N-(1-(1-(2-aminoacetyl)piperidin-3-yl)ethyl)sulfamoyl)naph-thalen-1-yl)-2-methylbenzamide]: over 10000 nM.

Under setting [1], `Cc1ccccc1C(=O)Nc1ccc(S(=O)(=O)NC(C)C2CCCN(C(=O)[C@H](C)NC(=O)OC(C)(C)C)C2)c2ccccc12` (single isomer, unassigned) [Compound 157A] gave an IC50 of over 10000 nM. Turning to `Cc1ccccc1C(=O)Nc1ccc(S(=O)(=O)NC(C)C2CCCN(C(=O)[C@H](C)NC(=O)OC(C)(C)C)C2)c2ccccc12` (single isomer, unassigned) [Compound 157B], the IC50 under setting [2] was over 10000 nM.

On to `Cc1ccccc1C(=O)Nc1ccc(S(=O)(=O)NC(C)C2CCCN(C(=O)[C@H](C)NC(=O)OC(C)(C)C)C2)c2ccccc12` (single isomer, unassigned) [Compound 157C], for which the IC50 under setting [2] was over 10000 nM.

`Cc1ccccc1C(=O)Nc1ccc(S(=O)(=O)NC(C)C2CCCN(C(=O)[C@H](C)NC(=O)OC(C)(C)C)C2)c2ccccc12` (single isomer, unassigned) [Compound 157D]: the IC50 under setting [2] is over 10000 nM. Consider `Cc1ccccc1C(=O)Nc1ccc(S(=O)(=O)NC(C)C2CCCN(C(=O)[C@H](C)N)C2)c2ccccc12` (single isomer, unassigned) [Compound 158A], for which, under setting [1], the IC50 was found to be 1500 nM. Same read-out and setting: the same measure for `Cc1ccccc1C(=O)Nc1ccc(S(=O)(=O)NC(C)C2CCCN(C(=O)[C@H](C)N)C2)c2ccccc12` (single isomer, unassigned) [Compound 158B]: 685 nM; for `Cc1ccccc1C(=O)Nc1ccc(S(=O)(=O)NC(C)C2CCCN(C(=O)[C@H](C)N)C2)c2ccccc12` (single isomer, unassigned) [Compound 158C]: 458 nM.

In turn, `Cc1ccccc1C(=O)Nc1ccc(S(=O)(=O)NC(C)C2CCCN(C(=O)[C@H](C)N)C2)c2ccccc12` (single isomer, unassigned) [Compound 158D] yielded an IC50 under setting [1] of 1020 nM. Consider `COC1CCC([C@@H](C)NS(=O)(=O)c2ccc(NC(=O)c3ccccc3C)c(C)c2)CC1` (single isomer, unassigned) [Compound 293A, N-(4-(N-(1-(4-methoxycyclohexyl)ethyl)sulfamoyl)-2-methylphenyl)-2-methylbenzamide], for which the IC50 under setting [2] came out at 24 nM. The same measure, in the same setting: the same measure for `COC1CCC([C@@H](C)NS(=O)(=O)c2ccc(NC(=O)c3ccccc3C)c(C)c2)CC1` (single isomer, unassigned) [Compound 293B, N-(4-(N-(1-(4-methoxycyclohexyl)ethyl)sulfamoyl)-2-methylphenyl)-2-methylbenzamide]: 46 nM. `CCCN1CCN(c2cccc(NS(=O)(=O)c3ccc(NC(=O)c4ccccc4C)c4ccccc34)c2C)CC1` [Compound 2, 2-methyl-N-(4-(N-(2-methyl-3-(4-propylpiperazin-1-yl)phenyl)sulfamoyl)naphthalen-1-yl)benzamide] had an IC50 under setting [1] of over 10000 nM.

For `CCCN1CCN(c2ccc(OC)c(NS(=O)(=O)c3ccc(NC(=O)c4ccccc4C)c4ccccc34)c2)CC1` [Compound 3, N-(4-(N-(2-methoxy-5-(4-propylpiperazin-1-yl)phenyl)sulfamoyl)naphthalen-1-yl)-2-methylbenzamide], the IC50 under setting [1] is over 10000 nM.

As to `CCCN1CCCN(c2cc(NS(=O)(=O)c3ccc(NC(=O)c4ccccc4C)c4ccccc34)ccc2OC)CC1` [Compound 4, N-(4-(N-(4-methoxy-3-(4-propyl-1,4-diazepan-1-yl)phenyl)sulfamoyl)naphthalen-1-yl)-2-methylbenzamide], the IC50 under setting [1] worked out at 1170 nM. Same read-out and setting: the same measure for `CCOC(=O)N1CCCC(C(=O)NS(=O)(=O)c2ccc(NC(=O)c3ccccc3C)c3ccccc23)C1` (stereo not shown) [Compound 5, ethyl 3-(((4-(2-methylbenzamido)naph-thalen-1-yl)sulfonyl)carbamoyl) piperidine-1-carboxylate]: over 10000 nM; for `CCCC(=O)N1CCCC1C(=O)NS(=O)(=O)c1ccc(NC(=O)c2ccccc2C)c2ccccc12` (stereo not shown) [Compound 7, 1-butyryl-N-((4-(2-methylbenzamido)naph-thalen-1-yl)sulfonyl)pyrrolidine-2-carboxamide]: over 10000 nM; for `CCCC(=O)N1CCCC(C(=O)NS(=O)(=O)c2ccc(NC(=O)c3ccccc3C)c3ccccc23)C1` (stereo not shown) [Compound 9, 1-butyryl-N-((4-(2-methylbenzamido)naph-thalen-1-yl)sulfonyl)piperidine-3-carboxamide]: over 10000 nM.

Under setting [1], `Cc1ccccc1C(=O)Nc1ccc(S(=O)(=O)NC(=O)c2cccc(N(C)C)c2)c2ccccc12` [Compound 10, N-(4-(N-(3-(dimethylamino)benzoyl)sulfamoyl)naphthalen-1-yl)-2-methylbenzamide] gave an IC50 of over 10000 nM.

On to `CCCN1CCN(c2cccc(C(=O)NS(=O)(=O)c3ccc(NC(=O)c4ccccc4C)c4ccccc34)c2)CC1` [Compound 11, 2-methyl-N-(4-(N-(3-(4-propylpiperazin-1-yl)benzoyl)sulfamoyl)naphthalen-1-yl)benzamide], for which the IC50 under setting [1] is over 10000 nM. The same measure, in the same setting: the same measure for `Cc1ccccc1C(=O)Nc1ccc(S(=O)(=O)NC(=O)c2ccccc2N2CCCCC2)c2ccccc12` [Compound 12, 2-methyl-N-(4-(N-(2-(piperidin-1-yl)benzoyl)sulfamoyl)naphthalen-1-yl)benzamide]: over 10000 nM; for `Cc1ccccc1C(=O)Nc1ccc(S(=O)(=O)NC(=O)c2ccccc2N2CCOCC2)c2ccccc12` [Compound 13, 2-methyl-N-(4-(N-(2-morpholinobenzoyl)sul-famoyl)naphthalen-1-yl)benzamide]: over 10000 nM.

For `CCCC(=O)N1CCCC(CNS(=O)(=O)c2ccc(NC(=O)c3ccccc3C)c3ccccc23)C1` (stereo not shown) [Compound 14, N-(4-(N-((1-butyrylpiperidine-3-yl)methyl)sulfamoyl)naphthalen-1-yl)-2-methylbenzamide], the IC50 under setting [1] was over 10000 nM.
